# Experimental data published in US6753176B2, “Aggrecan degrading metallo proteases” (Bristol-Myers Squibb Company, priority 1997, dated 2004).
# Entries after “also recorded” stand apart in the source; their conditions may differ.
# Legend:
# ADMP = ADMP (aggrecanase) activity: cleavage of purified bovine aggrecan monomers at Glu373-Ala374, BC-3 neoepitope antibody Western; type: biochemical
# Procedure: ADMPs were detected at this point by their ability to cleave purified bovine aggrecan monomers isolated from bovine nasal cartilage by the following procedure: Aggrecan was extracted from the cartilage by stirring at 4° C. for 48 hours in 10 volumes of 4M guanidine-HCl in 0.05 M sodium acetate, pH 5.8, containing the protease inhibitors, 0.01M EDTA (EDTA is ethylenediaminetetraacetic acid), 0.1M 6-aminohexanoic acid, 2 mM PMSF and 0.05M benzamidine HCl. Aggrecan monomers were isolated by equilibrium density gradient centrifugation in cesium chloride [Hascall, V. C. and Sajdera, S. W. (1969) J. Biol. Chem. 244, 2384-2396.] and the bottom of this gradient (d>1.54 g/ml) containing the aggrecan monomers, was dialyzed at 4° C. against water and lyophilized.
# These aggrecan monomers (500 nM) were incubated at 37° C. for at least 4 hr with ADMPs eluted from the Macro S support column in a final volume of 200 ul in Buffer B (Buffer B contains 50 mM Tris, pH 7.6, containing 0.1 M NaCl and 10 mM CaCl2), quenched with 20 mM EDTA and analyzed for aggrecan fragments produced exclusively by cleavage at the Glu^373-Ala^374 bond within the aggrecan core protein using the monoclonal antibody, BC-3 (Hughes, C. E., et al., Biochem. J. 306:799-804, 1995). This antibody recognizes aggrecan fragments with the N-terminal sequence A^374RGSVIL . . . , generated upon cleavage by ADMPs. The BC-3 antibody recognizes this neoepitope only when it is the N-terminus and not when it is present internally within aggrecan fragments or within the intact aggrecan core protein. […]
# After digestion, the samples were precipitated with 5 volumes of acetone and reconstituted in an appropriate volume of SDS-PAGE sample buffer, loaded on 4-12% gradient gels and then separated by SDS-PAGE under non reducing conditions, transferred overnight to nitrocellulose and immunolocated with 1:1000 dilution of the monoclonal antibody BC-3. […] BC-3-reactive aggrecan fragments were then quantified by scanning densitometry.
# ADMP-1 = target: T1, ADMP-1 (Bos taurus, UniProt Q9TT93); experiment: Binding of 67 kDa ADMP-1 doublet to aggrecanase-inhibitor hydroxamate affinity resin in the presence of inhibitor; design: species or system bovine
# T1 construct: from tissue; host or cells: conditioned medium of IL-1-stimulated bovine nasal cartilage, purified over Macro S, gelatin-agarose and TIMP-1/protein A
# T1 sequence (Q9TT93 213-839): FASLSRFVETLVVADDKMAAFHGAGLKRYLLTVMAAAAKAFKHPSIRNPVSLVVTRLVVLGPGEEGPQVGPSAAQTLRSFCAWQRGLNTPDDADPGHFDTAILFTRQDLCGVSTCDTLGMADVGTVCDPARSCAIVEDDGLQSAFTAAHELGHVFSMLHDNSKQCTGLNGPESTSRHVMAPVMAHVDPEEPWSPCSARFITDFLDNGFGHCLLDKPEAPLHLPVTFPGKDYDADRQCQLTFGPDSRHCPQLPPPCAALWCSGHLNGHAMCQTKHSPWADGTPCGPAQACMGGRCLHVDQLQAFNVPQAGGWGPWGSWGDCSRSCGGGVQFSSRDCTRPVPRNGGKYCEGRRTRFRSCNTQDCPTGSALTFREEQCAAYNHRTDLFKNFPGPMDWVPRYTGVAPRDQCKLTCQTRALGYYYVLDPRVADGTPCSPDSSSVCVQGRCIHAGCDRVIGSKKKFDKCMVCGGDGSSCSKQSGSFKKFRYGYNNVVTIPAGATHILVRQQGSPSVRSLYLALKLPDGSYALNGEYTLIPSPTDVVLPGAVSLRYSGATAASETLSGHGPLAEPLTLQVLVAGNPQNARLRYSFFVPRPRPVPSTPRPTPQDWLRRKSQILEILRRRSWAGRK
# Source text: An ADMP-inhibitor hydroxamate affinity resin was produced in the following manner. POROS 20-NH perfusive chromatographic media (Perseptive Biosystems), a highly crosslinked poly(styrene divinylbenzene) polymer, was mixed overnight with four equivalents of Fmoc-beta-alanine, four equivalents HBTU (O-Benzotriazole-N,N,N′,N′-tetramethyl-uronium hexafluorophosphate), and eight equivalents DIEA (N,N diisopropylethylamine) in DMF (dimethylformamide). The resin was rinsed several times with DMF, then the FMOC group was removed with 20% piperidine/DMF. This coupling/deprotecting scheme was repeated three more times, resulting in four beta-alanine residues coupled to the resin. After the final piperidine deprotection, 1.5 equivalents of a t-butyl protected hydroxamic acid capable of inhibiting ADMP activity was coupled with 1.5 equivalents HBTU and 3 equivalents DIEA in DMF. After rinsing with DMF and CH2Cl2, the t-butyl group was removed by mixing overnight with TFA (trifluoroacetic acid), leaving the hydroxamic acid. The resin was thoroughly rinsed with CH2Cl2 and dried under vacuum.
# The eluate from the protein A column was neutralized with 1 M Tris base to pH 7.5 and then incubated for 2 hours with the aggrecanase-inhibitor hydroxamate resin at a ratio of 1 mg resin for every 1 ml of eluate. […]
# [1] = tested on: matrix metalloproteinases; experiment: Inhibition of matrix metalloproteinases; type: biochemical
binding of 67 kDa ADMP-1 doublet to aggrecanase-inhibitor hydroxamate resin (ADMP-1; 10 uM compound included during affinity purification),binding of 67 kDa ADMP-1 to the affinity resin (ADMP-1; compound present during affinity purification),Molecule,inhibition of ADMP activity (ADMP),inhibition of matrix metalloproteinases [1]
blocked,–,"CNC(=O)[C@@H]1CCCCNC(=O)CC[C@H](C(=O)NO)[C@H](CC(C)C)C(=O)N1 [Compound B, (2S,11S, 12S)-12-isobutyl-2-[(methylamino)carbonyl]-11[(hydroxylamino)carbonyl]-8,13-dioxo-1,7-diazacyclotridecane]",potent ADMP inhibitor,–
–,not affected,"CNC(=O)[C@H]1CCCNN1C(=O)[C@@H](CC(C)C)[C@@H](C)C(=O)NO [Compound A, N3-methyl-(3R)-2-[(2S)-2-[(1R)-2-(hydroxyamino)-1-methyl-2-oxoethyl]-4-methylpentanoyl]hexahydro-3-pyridazinecarboxamide]",ineffective; also recorded: inactive,broad spectrum inhibitor; also recorded: potent inhibitor
–,–,tissue inhibitor of metalloproteinases-1 [TIMP-1],inhibited,–
